According to ChEMBL document CHEMBL1201862, “PubChem BioAssay data set” (2004):
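Cultured in 96-well plates, cells were exposed to test compound for 48 hours across five concentrations. GI50 marks 50% less growth.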 Calls of active or inactive are those of the source. Cut-off read from the data, not from the text of the source: active = GI50 up to about 1.1 µM and inactive = higher.

Experiments:
Test in all cases: NCI tumour cell line growth inhibition, 48 h
DMS-114 = system: DMS-114
KM12 = system: KM12
HCC 2998 = system: HCC 2998
HL-60 = system: HL-60
SW-620 = system: SW-620
SNB-78 = system: SNB-78
LXFL 529 = system: LXFL 529
HOP-18 = system: HOP-18
IGROV-1 = system: IGROV-1
SN12C = system: SN12C
MOLT-4 = system: MOLT-4
MDA-MB-231 = system: MDA-MB-231
T47D = system: T47D
Hs-578T = system: Hs-578T
Malme-3M = system: Malme-3M
BT-549 = system: BT-549
SK-OV-3 = system: SK-OV-3
MDA-N = system: MDA-N
DLD-1 = system: DLD-1
XF498 = system: XF498

| SMILES | GI50 (DMS-114) | GI50 (KM12) | GI50 (HCC 2998) | GI50 (HL-60) | GI50 (SW-620) | GI50 (SNB-78) | GI50 (LXFL 529) | GI50 (HOP-18) | GI50 (IGROV-1) | GI50 (SN12C) | GI50 (MOLT-4) | GI50 (MDA-MB-231) | GI50 (T47D) | GI50 (Hs-578T) | GI50 (Malme-3M) | GI50 (BT-549) | GI50 (SK-OV-3) | GI50 (MDA-N) | GI50 (DLD-1) | GI50 (XF498) |
| --- | --- | --- | --- | --- | --- | --- | --- | --- | --- | --- | --- | --- | --- | --- | --- | --- | --- | --- | --- | --- |
| Cc1cc(O)nc(NN2C(Cl)C(=O)C2c2ccco2)n1 (stereo unspecified) | 34.4 µM (inactive) | 44.6 µM (inactive) | 60 µM (inactive) | 15.3 µM (inactive) | 64.9 µM (inactive) | 25.7 µM (inactive) | 29.3 µM (inactive) | 21.1 µM (inactive) | 27 µM (inactive) | 24.2 µM (inactive) | 21.8 µM (inactive) | – | – | – | – | – | – | – | – | – |
| CCOC(=O)C1=C(C)N(c2ccc(Cl)cc2)C2(O)C=CC(Nc3ccc(Cl)cc3)=C3C(=O)N(c4ccccc4)C(=O)C312 (stereo unspecified) | – | 4.34 µM (inactive) | – | 2.97 µM (inactive) | 3.74 µM (inactive) | – | – | – | 5.36 µM (inactive) | 2.45 µM (inactive) | 2.12 µM (inactive) | 4.25 µM (inactive) | 3.84 µM (inactive) | 5.51 µM (inactive) | 7.71 µM (inactive) | 1.54 µM (inactive) | 8.85 µM (inactive) | – | – | – |
| CC1=Nc2nc(Cl)cn2C(=O)C1(Cl)Cl | – | > 10 µM (inactive) | > 10 µM (inactive) | > 10 µM (inactive) | > 10 µM (inactive) | – | – | – | > 10 µM (inactive) | > 10 µM (inactive) | > 10 µM (inactive) | > 10 µM (inactive) | > 10 µM (inactive) | > 10 µM (inactive) | > 10 µM (inactive) | – | > 10 µM (inactive) | > 10 µM (inactive) | – | – |
| C/C(N)=N/OCc1nc(C)no1 | – | > 100 µM (inactive) | > 100 µM (inactive) | > 100 µM (inactive) | > 100 µM (inactive) | – | – | – | – | > 100 µM (inactive) | > 100 µM (inactive) | > 100 µM (inactive) | > 100 µM (inactive) | > 100 µM (inactive) | – | > 100 µM (inactive) | > 100 µM (inactive) | > 100 µM (inactive) | – | – |
| COc1ccc([C@@H]2ON(C)[C@H]3CN(C)C(=O)[C@@H]23)cc1 | – | – | > 100 µM (inactive) | > 100 µM (inactive) | > 100 µM (inactive) | – | – | – | > 100 µM (inactive) | > 100 µM (inactive) | > 100 µM (inactive) | > 100 µM (inactive) | > 100 µM (inactive) | > 100 µM (inactive) | – | – | > 100 µM (inactive) | > 100 µM (inactive) | – | – |
| CC12CCC(C(=O)OC1=O)C(C)(C)O2 (stereo unspecified) | – | > 100 µM (inactive) | > 100 µM (inactive) | – | > 100 µM (inactive) | – | – | – | > 100 µM (inactive) | > 100 µM (inactive) | > 100 µM (inactive) | – | > 100 µM (inactive) | > 100 µM (inactive) | > 100 µM (inactive) | > 100 µM (inactive) | > 100 µM (inactive) | > 100 µM (inactive) | – | – |
| CC1CC2C3CCC4=CC(=O)C=CC4(C)C3(F)C(O)CC2(C)C1(O)C(=O)COP(=O)(O)O (stereo unspecified) | – | > 100 µM (inactive) | > 100 µM (inactive) | > 100 µM (inactive) | > 100 µM (inactive) | > 100 µM (inactive) | > 100 µM (inactive) | > 100 µM (inactive) | > 100 µM (inactive) | – | > 62.7 µM (inactive) | > 100 µM (inactive) | > 100 µM (inactive) | > 100 µM (inactive) | > 100 µM (inactive) | > 100 µM (inactive) | – | 8.18 µM (inactive) | > 100 µM (inactive) | > 100 µM (inactive) |
| CC1[C@@]2(O[C@@H]3C=C4C5CCC6Cc7nc8c(nc7C[C@@]6(C)C5C[C@H](O)[C@@]4(C)[C@]13O)CC1CCc3c(cc4c5c3C(O)C[C@H]5[C@@H](C)C3(O4)OC(C)(C)CC3O)[C@]1(C)C8)O[C@@](C)(CO)C[C@@H]2O (stereo partly specified) | 0.119 µM (active) | 1.29 µM (inactive) | 1.91 µM (inactive) | 0.191 µM (active) | 0.49 µM (active) | 0.183 µM (active) | – | 1.92 µM (inactive) | 0.345 µM (active) | 2.3 µM (inactive) | – | – | – | – | 0.22 µM (active) | – | 0.187 µM (active) | – | 1.79 µM (inactive) | 0.0162 µM (active) |
| Oc1[nH]c(Nc2cccc(Br)c2)nc2ncnc1-2 | – | > 100 µM (inactive) | > 100 µM (inactive) | 11.6 µM (inactive) | > 100 µM (inactive) | – | – | – | > 100 µM (inactive) | – | > 100 µM (inactive) | 55.6 µM (inactive) | 98.4 µM (inactive) | 55.3 µM (inactive) | > 100 µM (inactive) | 82.8 µM (inactive) | > 100 µM (inactive) | > 100 µM (inactive) | – | – |
| Nc1ccn(C2OC(CO)C(O)C2O)c(=O)c1 (stereo unspecified) | – | > 625 µM (inactive) | 63.2 µM (inactive) | 239 µM (inactive) | 610 µM (inactive) | > 625 µM (inactive) | – | 295 µM (inactive) | > 625 µM (inactive) | 108 µM (inactive) | – | – | – | – | 114 µM (inactive) | – | > 625 µM (inactive) | – | 513 µM (inactive) | < 0.0625 µM (active) |
